Consider 23 compounds from ChEMBL document CHEMBL6092125, “Synthesis and biological evaluation of novel aminoquinolines with an n-octyl linker: Impact of halogen substituents on C(7) or a terminal amino group on anticholinesterase and BACE1 activity” (Bioorg Med Chem Lett, 2024).

In assay [1] the target is T1, Cholinesterase (Homo sapiens, UniProt P06276). Nature of the assay: Inhibition of recombinant human BChE by DTNB reagent based Ellman's method.
Assay [2] has as its system HEK293. As to the kind of experiment: Cytotoxicity against HEK293 cells incubated for 24 hrs by MTS assay. The format is functional, cell-based. Particulars: Homo sapiens. For orientation: Tetrazolium assays rely on reduction of a dye to a coloured formazan, in cell work by metabolically active cells.
Assay [3] has as its target T2, Acetylcholinesterase (Homo sapiens, UniProt P22303). As to the kind of experiment: Inhibition of recombinant human AChE by DTNB reagent based Ellman's method. For orientation: In Ellman's method for cholinesterases, released thiocholine reacts with DTNB.
The test system of assay [4] is SH-SY5Y. Nature of the assay: Cytotoxicity against human SH-SY5Y cells incubated for 24 hrs by MTS assay. The assay is classed as functional, cell-based.
Assay [5] concerns the target T2, Acetylcholinesterase. As to the kind of experiment: Non-competitive inhibition of recombinant human AChE by DTNB reagent based Ellman's method.
The target in assay [6] is Beta-secretase 1 (Homo sapiens) (UniProt P56817). Nature of the assay: Inhibition of BACE1 (unknown origin) at 1 uM relative to control.
For assay [7], the target named is T1, Cholinesterase. As to the kind of experiment: Mixed type inhibition of recombinant human BChE by DTNB reagent based Ellman's method.
Assay [8] deals with T2, Acetylcholinesterase. Nature of the assay: Mixed type inhibition of recombinant human AChE by DTNB reagent based Ellman's method.
In assay [9] the target is T1, Cholinesterase. Nature of the assay: Competitive inhibition of recombinant human BChE by DTNB reagent based Ellman's method.
The subject of assay [10] is HepG2. As to the kind of experiment: Cytotoxicity against human HepG2 cells incubated for 24 hrs by MTS assay. The format is functional, cell-based.
The target of assay [11] is T2, Acetylcholinesterase. Nature of the assay: Competitive inhibition of recombinant human AChE by DTNB reagent based Ellman's method.

The source made the active and inactive calls. The calls are words filed in the database; no cut-off is given here.

T1 sequence (P06276 whole entry): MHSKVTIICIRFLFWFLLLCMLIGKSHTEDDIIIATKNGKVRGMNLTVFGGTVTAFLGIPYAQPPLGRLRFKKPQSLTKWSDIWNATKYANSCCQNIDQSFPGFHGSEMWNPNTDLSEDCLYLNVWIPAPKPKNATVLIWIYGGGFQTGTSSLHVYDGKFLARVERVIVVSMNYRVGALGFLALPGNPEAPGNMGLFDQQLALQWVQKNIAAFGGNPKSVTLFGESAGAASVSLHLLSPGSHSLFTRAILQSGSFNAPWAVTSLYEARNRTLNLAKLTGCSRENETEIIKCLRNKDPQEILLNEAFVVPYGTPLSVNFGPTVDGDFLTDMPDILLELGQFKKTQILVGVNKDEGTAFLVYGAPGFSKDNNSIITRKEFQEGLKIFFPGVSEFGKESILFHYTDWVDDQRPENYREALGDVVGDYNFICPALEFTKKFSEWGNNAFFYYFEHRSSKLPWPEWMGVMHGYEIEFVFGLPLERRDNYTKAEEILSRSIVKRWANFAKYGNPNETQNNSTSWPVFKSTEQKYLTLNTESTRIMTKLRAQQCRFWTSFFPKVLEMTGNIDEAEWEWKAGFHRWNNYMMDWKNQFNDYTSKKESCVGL
T2 sequence (P22303 whole entry): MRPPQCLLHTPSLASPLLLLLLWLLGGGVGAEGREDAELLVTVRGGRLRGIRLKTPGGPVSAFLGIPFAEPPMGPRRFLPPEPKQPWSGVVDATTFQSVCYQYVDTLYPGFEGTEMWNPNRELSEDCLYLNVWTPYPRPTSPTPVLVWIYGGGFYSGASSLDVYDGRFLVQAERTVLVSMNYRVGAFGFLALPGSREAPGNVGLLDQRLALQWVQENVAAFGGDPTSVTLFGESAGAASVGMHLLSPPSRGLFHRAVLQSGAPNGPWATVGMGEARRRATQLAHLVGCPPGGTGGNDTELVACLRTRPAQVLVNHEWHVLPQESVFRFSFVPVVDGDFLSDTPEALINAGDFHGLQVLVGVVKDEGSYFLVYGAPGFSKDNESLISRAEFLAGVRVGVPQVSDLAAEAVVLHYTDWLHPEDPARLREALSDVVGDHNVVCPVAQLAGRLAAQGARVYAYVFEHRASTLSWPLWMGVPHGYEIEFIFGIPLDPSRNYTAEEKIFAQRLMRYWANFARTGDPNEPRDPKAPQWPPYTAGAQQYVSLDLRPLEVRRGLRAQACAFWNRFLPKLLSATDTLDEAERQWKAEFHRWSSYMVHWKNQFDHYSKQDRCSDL
Chain of Beta-secretase 1 (Homo sapiens) (P56817 whole entry): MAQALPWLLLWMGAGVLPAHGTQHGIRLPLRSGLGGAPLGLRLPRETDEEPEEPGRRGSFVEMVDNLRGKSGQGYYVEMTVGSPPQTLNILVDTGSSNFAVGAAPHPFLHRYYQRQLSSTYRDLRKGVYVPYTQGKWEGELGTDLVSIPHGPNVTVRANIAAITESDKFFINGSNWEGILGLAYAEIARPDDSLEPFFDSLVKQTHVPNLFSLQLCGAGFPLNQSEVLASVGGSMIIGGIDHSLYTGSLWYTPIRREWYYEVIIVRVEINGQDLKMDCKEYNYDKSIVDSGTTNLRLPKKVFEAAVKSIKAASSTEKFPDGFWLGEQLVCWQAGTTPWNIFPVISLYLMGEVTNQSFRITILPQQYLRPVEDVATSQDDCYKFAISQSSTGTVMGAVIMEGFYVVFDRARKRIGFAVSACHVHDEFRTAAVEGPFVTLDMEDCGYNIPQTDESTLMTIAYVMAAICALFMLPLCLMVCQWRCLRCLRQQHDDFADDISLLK

As a reminder, the Ki is the equilibrium dissociation constant of an inhibitor or competing ligand from its target. Take `Cc1cc(F)c(CNCCCCCCCCNc2ccnc3cc(Cl)ccc23)cc1F`: the Ki in assay [1] is 620 nM; in assay [3], 120 nM. Further, the result in [2] was Active.

As to `Fc1cc(Br)ccc1CNCCCCCCCCNc1ccnc2cc(Cl)ccc12`, in assay [4], the Activity entry was “Active; Increase In Toxicity Compared To Parent Compound 1”. Also, the Ki in [1] is 230 nM; in assay [3] it was 110 nM.

As a reminder, the inhibition is the percentage by which the read-out fell short of the control. For `O=[N+]([O-])c1ccc(NCCCCCCCCNc2ccnc3cc(C(F)(F)F)ccc23)cc1`, the figures for the Ki in assay [5] and in [7] were 140 nM and 36 nM, respectively. Besides, the inhibition in [6] is over 5.6%.

As for `FC(F)(F)c1ccc2c(NCCCCCCCCNc3ccccc3Cl)ccnc2c1`, the result in [4] and in assay [2] was Active. For the same compound, the Ki in [8] was determined as 13 nM; in assay [9], 19 nM.

As to `Fc1ccc(CNCCCCCCCCNc2ccnc3cc(Cl)ccc23)c(F)c1`, the outcome in assay [4] was Active. Moreover, the results for the Ki in [1] and in [3] were 270 nM and 21 nM, respectively.

Regarding `FC(F)(F)c1ccc2c(NCCCCCCCCNc3cccc(Cl)c3)ccnc2c1`, the result in [4] and in assay [2] was Active. The inhibition in assay [6] was over 5.6%. The Ki was 11 nM in assay [8] and 5.9 nM in assay [7].

As to `Fc1cccc(NCCCCCCCCNc2ccnc3cc(C(F)(F)F)ccc23)c1`, the outcome in [4], in assay [2] and in [10] was inactive. Besides, the inhibition in [6] was over 5.6%. For the same compound, the inhibition constant (Ki) in assay [8] worked out at 7.1 nM; in assay [7], 6.7 nM.

Consider `FC(F)(F)c1ccc2c(NCCCCCCCCNc3ccccc3)ccnc2c1`, for which the Ki came out at 8 nM in [5] and 21 nM in assay [7]. For the same compound, the inhibition in assay [6] is over 5.6%.

For `FC(F)(F)c1ccc2c(NCCCCCCCCNC3NCCN3)ccnc2c1`, the Ki in assay [5] was 200 nM; in assay [7] it was 190 nM.

`Fc1cccc(CNCCCCCCCCNc2ccnc3cc(Cl)ccc23)c1`: the values for the Ki in [1] and in assay [3] were 8.4 nM and 3.2 nM, respectively.

Turning to `Fc1cc(C(F)(F)F)ccc1CNCCCCCCCCNc1ccnc2cc(Cl)ccc12`, in assay [4], the Activity entry is on record as “Active; Increase In Toxicity Compared To Parent Compound 1”. Also, the results for the Ki in assay [1] and in [3] were 1100 nM and 150 nM, respectively. The result in [2] was Active.

Consider `FC(F)(F)c1ccc2c(NCCCCCCCCNc3ccc(Cl)cc3)ccnc2c1`, for which the result in assay [4] and in assay [2] was Active. Besides, the Ki in [11] was determined as 70 nM; in [9] it was 21 nM.

Regarding `FC(F)(F)c1ccc2c(NCCCCCCCCNc3cc4ccccc4o3)ccnc2c1`, the Ki in [11] was 540 nM; in assay [9], 49 nM.

Consider `Fc1ccc(NCCCCCCCCNc2ccnc3cc(C(F)(F)F)ccc23)cc1`, for which the Ki in [5] amounted to 12 nM; in assay [9], 6.1 nM.

Take `Clc1ccc(CNCCCCCCCCNc2ccnc3cc(Cl)ccc23)c(Cl)c1`: the Activity entry in [4] is “Active; Increase In Toxicity Compared To Parent Compound 1”. Besides, the figures for the Ki in assay [1] and in [3] were 180 nM and 36 nM, respectively.

As for `Fc1cc(C(F)(F)F)ccc1CN(CCCCCCCCNc1ccnc2cc(Cl)ccc12)c1ccc(C(F)(F)F)cc1F`, the Ki in assay [1] is 1500 nM; in assay [3] it was 700 nM.

Consider `FC(F)(F)c1ccc2c(NCCCCCCCCNc3cc4ccccc4s3)ccnc2c1`, for which the outcome in [4] and in [2] was Active. The inhibition in [6] is over 5.6%. Besides, the Ki was found to be 70 nM in assay [8] and 4.4 nM in assay [9].

As for `Fc1ccc(Br)cc1CNCCCCCCCCNc1ccnc2cc(Cl)ccc12`, the results for the Ki in assay [1] and in assay [3] were 220 nM and 24 nM, respectively.

Take `CC(C)(C)c1ccc(NCCCCCCCCNc2ccnc3cc(C(F)(F)F)ccc23)cc1`: the Ki in [5] came out at 160 nM; in assay [9], 71 nM.

For `Fc1ccc(Br)c(CNCCCCCCCCNc2ccnc3cc(Cl)ccc23)c1`, the Ki in assay [1] came to 280 nM; in assay [3], 16 nM.

Compound `Fc1ccc(F)c(CNCCCCCCCCNc2ccnc3cc(Cl)ccc23)c1` displayed an inhibition in assay [6] of over 5.6%. In addition, the Ki in assay [1] was 41 nM; in [3] it was 8.2 nM.

`FC(F)(F)c1ccc2c(NCCCCCCCCNc3ccncc3)ccnc2c1` gave an inhibition in assay [6] of over 5.6%. Besides, in assay [9], the Ki came out at 1300 nM.

In the case of `Fc1ccc(F)c(CN(CCCCCCCCNc2ccnc3cc(Cl)ccc23)c2cc(F)ccc2F)c1`, the figures for the Ki in [1] and in [3] were 1300 nM and 260 nM, respectively.
